# From publication PMC8851455 (ACS Omega, 2022)
# How the values were obtained:
# [1] = tested on: S. typhimurium TA98; assay: Ames test, strain TA98; format: cell-based, Salmonella typhimurium
# [2] = tested on: zebrafish embryos; conditions: cited from earlier work
# [3] = tested on: S. typhimurium TA100; assay: Ames test, strain TA100; format: cell-based, Salmonella typhimurium
# [4] = tested on: ERβ; conditions: competing with E2; cited from earlier work
# [5] = TA100 +S9, 5 × 10^–2 pmol/plate
# [6] = TA100 +S9, 5 × 10^–3 pmol/plate
# [7] = TA100 +S9, 5 × 10^–4 pmol/plate
# [8] = TA100 +S9, 5 × 10^–5 pmol/plate
# [9] = TA100 -S9, 5 × 10^–2 pmol/plate
# [10] = TA100 -S9, 5 × 10^–3 pmol/plate
# [11] = TA100 -S9, 5 × 10^–4 pmol/plate
# [12] = TA100 -S9, 5 × 10^–5 pmol/plate
smiles,measurement,setting,value
O=c1c(-c2ccc(O)cc2)coc2cc(O)cc(O)c12 [genistein],number of revertants/plate (M ± SD),"[1]; TA98 +S9, 5 pmol/plate",23 ± 14 revertants/plate
same,MI,"[1]; TA98 +S9, 50 pmol/plate",1.2
same,number of revertants/plate (M ± SD),"[1]; TA98 +S9, 50 pmol/plate",28 ± 16 revertants/plate
same,MI,"[1]; TA98 +S9, 5 × 10^–2 pmol/plate",1.2
same,number of revertants/plate (M ± SD),"[1]; TA98 +S9, 5 × 10^–2 pmol/plate",28 ± 5 revertants/plate
same,MI,"[1]; TA98 +S9, 5 × 10^–3 pmol/plate",1.2
same,number of revertants/plate (M ± SD),"[1]; TA98 +S9, 5 × 10^–3 pmol/plate",28 ± 10 revertants/plate
same,MI,"[1]; TA98 +S9, 5 × 10^–4 pmol/plate",1.0
same,number of revertants/plate (M ± SD),"[1]; TA98 +S9, 5 × 10^–4 pmol/plate",24 ± 8 revertants/plate
same,MI,"[1]; TA98 +S9, 5 × 10^–5 pmol/plate",0.8
same,number of revertants/plate (M ± SD),"[1]; TA98 +S9, 5 × 10^–5 pmol/plate",19 ± 6 revertants/plate
same,MI,"[1]; TA98 -S9, 0.5 pmol/plate",0.7
same,number of revertants/plate (M ± SD),"[1]; TA98 -S9, 0.5 pmol/plate",15 ± 1 revertants/plate
same,MI,"[1]; TA98 -S9, 5 pmol/plate",0.8
same,number of revertants/plate (M ± SD),"[1]; TA98 -S9, 5 pmol/plate",18 ± 6 revertants/plate
same,MI,"[1]; TA98 -S9, 50 pmol/plate",0.6
same,number of revertants/plate (M ± SD),"[1]; TA98 -S9, 50 pmol/plate",13 ± 4 revertants/plate
same,MI,"[1]; TA98 -S9, 5 × 10^–2 pmol/plate",0.7
same,number of revertants/plate (M ± SD),"[1]; TA98 -S9, 5 × 10^–2 pmol/plate",16 ± 2 revertants/plate
same,MI,"[1]; TA98 -S9, 5 × 10^–3 pmol/plate",0.5
same,number of revertants/plate (M ± SD),"[1]; TA98 -S9, 5 × 10^–3 pmol/plate",11 ± 1 revertants/plate
same,MI,"[1]; TA98 -S9, 5 × 10^–4 pmol/plate",0.6
same,number of revertants/plate (M ± SD),"[1]; TA98 -S9, 5 × 10^–4 pmol/plate",13 ± 6 revertants/plate
same,MI,"[1]; TA98 -S9, 5 × 10^–5 pmol/plate",0.7
same,number of revertants/plate (M ± SD),"[1]; TA98 -S9, 5 × 10^–5 pmol/plate",15 ± 4 revertants/plate
same,developmental toxicity in zebrafish model,[2]; at 1–50 μM,showing developmental toxicity
same,survival rate for zebrafish embryos,[2]; exposure at 0.025 to 0.1 mM,significantly decreased the survival rate
same,MI,"[3]; TA100 +S9, 0.5 pmol/plate",1.0
same,number of revertants/plate (M ± SD),"[3]; TA100 +S9, 0.5 pmol/plate",307 ± 7 revertants/plate
same,MI,"[3]; TA100 +S9, 5 pmol/plate",0.9
same,number of revertants/plate (M ± SD),"[3]; TA100 +S9, 5 pmol/plate",301 ± 13 revertants/plate
same,MI,"[3]; TA100 +S9, 50 pmol/plate",0.9
same,number of revertants/plate (M ± SD),"[3]; TA100 +S9, 50 pmol/plate",296 ± 11 revertants/plate
same,MI,[3]; [5],1.0
same,number of revertants/plate (M ± SD),[3]; [5],308 ± 8 revertants/plate
same,MI,[3]; [6],1.0
same,number of revertants/plate (M ± SD),[3]; [6],313 ± 11 revertants/plate
same,MI,[3]; [7],0.9
same,number of revertants/plate (M ± SD),[3]; [7],301 ± 4 revertants/plate
same,MI,[3]; [8],0.9
same,number of revertants/plate (M ± SD),[3]; [8],294 ± 6 revertants/plate
same,MI,"[3]; TA100 -S9, 0.5 pmol/plate",1.0
same,number of revertants/plate (M ± SD),"[3]; TA100 -S9, 0.5 pmol/plate",103 ± 10 revertants/plate
same,MI,"[3]; TA100 -S9, 5 pmol/plate",0.9
same,number of revertants/plate (M ± SD),"[3]; TA100 -S9, 5 pmol/plate",96 ± 4 revertants/plate
same,MI,"[3]; TA100 -S9, 50 pmol/plate",0.8
same,number of revertants/plate (M ± SD),"[3]; TA100 -S9, 50 pmol/plate",80 ± 12 revertants/plate
same,MI,[3]; [9],0.9
same,number of revertants/plate (M ± SD),[3]; [9],97 ± 11 revertants/plate
same,MI,[3]; [10],1.0
same,number of revertants/plate (M ± SD),[3]; [10],100 ± 11 revertants/plate
same,MI,[3]; [11],0.9
same,number of revertants/plate (M ± SD),[3]; [11],94 ± 8 revertants/plate
same,MI,[3]; [12],1.0
same,number of revertants/plate (M ± SD),[3]; [12],98 ± 6 revertants/plate
same,binding affinity for ERβ,[4],87%
